Results taken from the NIST ThermoML archive (doi:10.1016/j.jct.2008.11.012).
Numbers after ± are expanded uncertainties.

Experiment: xn = mol fraction of the nth substance listed
Settings: 101 kPa, Liquid; for viscosity: Concentric cylinders viscometry; for mass density: Vibrating tube method

NCCNCCN [di(2-aminoethyl)amine] + O
Settings | mass density, 333.15 K [kg/m3] | mass density, 343.15 K [kg/m3] | mass density, 353.15 K [kg/m3] | mass density, 363.15 K [kg/m3] | viscosity, 333.15 K [mPa·s] | viscosity, 343.15 K [mPa·s] | viscosity, 353.15 K [mPa·s] | viscosity, 363.15 K [mPa·s]
x1 = 0.0095 | 985.5 ± 1 | 980 ± 1 | 973.8 ± 1 | 967.3 ± 1 | 0.5792 ± 0.024 | 0.4978 ± 0.021 | 0.4312 ± 0.018 | 0.3693 ± 0.016
x1 = 0.0299 | 986.5 ± 1 | 980.8 ± 1 | 974.6 ± 1 | 967.7 ± 1 | 0.8166 ± 0.033 | 0.6873 ± 0.028 | 0.5864 ± 0.024 | 0.4995 ± 0.021
x1 = 0.0565 | 991 ± 1 | 984.7 ± 1 | 978.1 ± 1 | 970.9 ± 1 | 1.283 ± 0.052 | 1.044 ± 0.043 | 0.8677 ± 0.036 | 0.7364 ± 0.03
x1 = 0.0696 | 992.4 ± 1 | 985.8 ± 1 | 978.9 ± 1 | 971.7 ± 1 | 1.562 ± 0.064 | 1.244 ± 0.051 | 1.017 ± 0.042 | 0.8452 ± 0.035
x1 = 0.1043 | 997.2 ± 1 | 990.1 ± 1 | 982.6 ± 1 | 974.7 ± 1 | 2.525 ± 0.1 | 1.919 ± 0.078 | 1.507 ± 0.061 | 1.213 ± 0.049
x1 = 0.125 | 998.2 ± 1 | 990.5 ± 1 | 982.3 ± 1 | 974.2 ± 1 | 3.206 ± 0.13 | 2.376 ± 0.096 | 1.824 ± 0.074 | 1.439 ± 0.058
x1 = 0.1591 | 999.9 ± 1 | 992.3 ± 1 | 982.9 ± 1 | 974.2 ± 1 | 4.43 ± 0.18 | 3.174 ± 0.13 | 2.373 ± 0.096 | 1.84 ± 0.075
x1 = 0.2076 | 996.3 ± 1 | 987.6 ± 1 | 978.5 ± 1 | 969.5 ± 1 | 5.698 ± 0.23 | 3.938 ± 0.16 | 2.852 ± 0.12 | 2.148 ± 0.087
x1 = 0.2449 | 993.1 ± 1 | 984.2 ± 1 | 975.1 ± 1 | 966.1 ± 1 | 6.271 ± 0.25 | 4.293 ± 0.17 | 3.086 ± 0.12 | 2.311 ± 0.094
x1 = 0.3099 | 984.1 ± 1 | 975.4 ± 1 | 966.3 ± 1 | 957 ± 1 | 6.366 ± 0.26 | 4.372 ± 0.18 | 3.151 ± 0.13 | 2.365 ± 0.096
x1 = 0.3438 | 979.6 ± 1 | 970.7 ± 1 | 961.7 ± 1 | 952.6 ± 1 | 6.191 ± 0.25 | 4.277 ± 0.17 | 3.1 ± 0.13 | 2.337 ± 0.095
x1 = 0.4112 | 969.2 ± 1 | 960.5 ± 1 | 951.7 ± 1 | 942.7 ± 1 | 5.44 ± 0.22 | 3.846 ± 0.16 | 2.841 ± 0.12 | 2.176 ± 0.088
x1 = 0.4974 | 956.8 ± 1 | 949.5 ± 1 | 940.8 ± 1 | 931.9 ± 1 | 4.572 ± 0.19 | 3.308 ± 0.13 | 2.502 ± 0.1 | 1.955 ± 0.079
x1 = 0.6111 | 945.1 ± 1 | 936.5 ± 1 | 927.8 ± 1 | 919.1 ± 1 | 3.62 ± 0.15 | 2.721 ± 0.11 | 2.118 ± 0.086 | 1.696 ± 0.069
x1 = 0.6988 | 937.3 ± 1 | 929.1 ± 1 | 920.4 ± 1 | 911.8 ± 1 | 3.083 ± 0.12 | 2.366 ± 0.096 | 1.876 ± 0.076 | 1.526 ± 0.062
x1 = 0.8073 | 929.1 ± 1 | 920.7 ± 1 | 912.2 ± 1 | 903.6 ± 1 | 2.618 ± 0.11 | 2.067 ± 0.084 | 1.677 ± 0.068 | 1.387 ± 0.056
x1 = 0.8954 | 922.9 ± 1 | 914.6 ± 1 | 906.1 ± 1 | 897.5 ± 1 | 2.301 ± 0.093 | 1.833 ± 0.074 | 1.504 ± 0.061 | 1.26 ± 0.051
x1 = 1 | 917 ± 1 | 908.9 ± 1 | 900.4 ± 1 | 891.9 ± 1 | 2.109 ± 0.086 | 1.703 ± 0.069 | 1.409 ± 0.057 | 1.19 ± 0.049
